Experimental data taken from US20240373852A1, “COMPOSITION FOR ALLEVIATING DROUGHT STRESS COMPRISING AMINO ACID” (CJ CheilJedang Corporation, priority 2022, published 2024).

Tested on: Arabidopsis thaliana
Test: Drought stress alleviation plate assay, single amino acid spray on Arabidopsis thaliana seedlings on PEG-treated medium
Assay type: in vivo
Conditions: for growth and development of above- and below-ground tissues (fresh weight of above-ground tissues, root length): drought stress-induced medium (PEG 20% treated), amino acid aqueous solution 0.05% (w/w) or 0.1% (w/w) sprayed 1 ml/plate, 3 days intervals, 4 times, compared to water or A company's product (AP); for function in alleviating drought stress and promoting plant growth: laboratory condition (plate assay), conclusion from Example 1-2 and 1-3
Description: In order to select an individual amino acid having function in alleviating drought stress among 20 kinds of amino acids (histidine, sodium glutamate, proline, threonine, tryptophan, valine, alanine, arginine, asparagine, aspartic acid, cysteine, glutamine, glycine, leucine, lysine, methionine, phenylalanine, serine, or tyrosine), Arabidopsis thaliana was trans-planted in drought stress-induced medium, and an amino acid aqueous solution comprising each amino acid (0.05% (w/w) or 0.1% (w/w)) was treated, then the fresh weight of the above-ground tissue and growth and development of the root (main root) of Arabidopsis thaliana were investigated.
Arabidopsis thaliana seeds (provided by Konkuk University plant development genomics lab) were put in a 2% Sodium hypochlorite, 0.05% Tween 20 solution and sterilized for 1 minute, then washed with water 4 times. The sterilized seeds were incubated in dark and cold (4 degrees) for 3 days.
Arabidopsis thaliana seeds were sown in a plant growth medium (½ MS; Murashige and Skoog Medium, Duchefa Biochem), and grow for 6 days in the growth chamber. The growth condition of plants is as follows: • Temperature: 23° C.; humidity: 60˜65%; light: light 16 hours/dark 8 hours
The drought stress-induced medium was prepared by the method as below.
After 24 hours, the PEG solution was removed and dried at a room temperature under a sterile condition.
6 days-old Arabidopsis thaliana seedlings grown in normal plant growth medium were transferred to the drought stress-induced medium (PEG 20% treated) or a control medium (PEG untreated).
Immediately after transfer seedlings on the drought-stress induced medium, an individual amino acid aqueous solution (0.05% (w/w) or 0.1% (w/w)) was sprayed on the plants; 1 ml/plate, 3 days intervals, for 4 times. As a control group, instead of the amino acid aqueous solution, water (DW, distilled water) or A company's drought stress-alleviating product (AP product, comprising Pro 9%, MSG 2.5%, Asp 0.9%) (Ajinomoto Fertilizers, Amino proline) was sprayed by the same method.
After that, the fresh weight, and root growth and development of Arabidopsis thaliana were investigated.

SMILES	growth and development of above- and below-ground tissues (fresh weight of above-ground tissues, root length)	function in alleviating drought stress and promoting plant growth
N[C@@H](CC(=O)O)C(=O)O [aspartic acid]	excellent	positive function
N[C@@H](Cc1c[nH]c2ccccc12)C(=O)O [tryptophan]	excellent	positive function
CC(C)[C@H](N)C(=O)O [valine]	excellent	
C[C@H](N)C(=O)O [alanine]	excellent	positive function
N[C@@H](Cc1ccccc1)C(=O)O [phenylalanine]	excellent	positive function
N=C(N)NCCC[C@H](N)C(=O)O [arginine]	excellent	positive function
N[C@@H](Cc1c[nH]cn1)C(=O)O [histidine]	excellent	positive function
N[C@@H](CCC(=O)[O-])C(=O)[O-].[Na+].[Na+] [sodium glutamate]	excellent	positive function
NCC(=O)O [glycine]	excellent	positive function
NC(=O)CC[C@H](N)C(=O)O [glutamine]	excellent	positive function
